The values below come from patent US5063210A, “Use of sulfated polysaccharides to decrease cholesterol and fatty acid absorption” (priority 1989, dated 1991).

Common to all, as to assay type: biochemical
The target in data set [1] is human pancreatic cholesterol esterase. Nature of the data set: Inhibition of human pancreatic cholesterol esterase, hydrolysis of cholesteryl 14C-oleate in phosphatidylcholine vesicles. Particulars: for IC50 / IC50, inhibition of cholesterol esterase (cholesteryl oleate hydrolysis): substrate cholesteryl 14C-oleate, 37° C., 15 min; for IC50: molar values from assumed molecular weights.

For data set [2], the target named is human 100 kDa cholesterol esterase. Nature of the data set: Inhibition of triolein hydrolysis by the human 100 kDa cholesterol esterase. Particulars: substrate triolein instead of cholesteryl oleate. The protocol:
Alginic acid from Macrocystis pyrifera (kelp) was dissolved in water at a concentration of 1 mg/ml. This stock solution was used to prepare various polysaccharide concentrations down to 10^-5 mg/ml. Human pancreatic cholesterol esterase was purified as described by Bosner et al., Proc. Nat'l. Acad. Sci., 85, 7438 (1988). To measure cholesterol esterase inhibition by alginic acid, 50 μl of cholesterol esterase (10 μg/ml), 75 μl of phosphatidylcholine vesicles containing cholesteryl ^14 C-oleate (1 mM 2,000 CPM/nmole), 25 μl of 100 mM taurocholate, 120 μl of 150 mM Tris, pH 7.5 and 30 μl of test alginic acid solution were incubated at 37° C. for fifteen minutes. The assay was quenched by placing the reaction vessels in a 4° C. ice bath and by adding 0.6 ml of 0.3 N NaOH and 3 ml of benzene/chloroform/methanol (1.0/1.2/0.5). The quenched reactions were vortexed for 30 seconds, centrifuged at 3,000 g for 15 minutes and 1 ml of the upper aqueous phase was added to 7 ml of Aquasol-2 (DuPont) with 0.025 ml of 6 N HCl. These mixtures were vortexed for one minute and counted for ^14 C-oleate. The counts were compared to a sample which contained cholesterol esterase but no alginic acid to determine the percentage of inhibition.
(The same assay procedure was used as described in Part I, only triolein was used instead of cholesteryl oleate.) As shown in the table below, the IC50 for inhibition of triolein hydrolysis is nearly the same as that for cholesteryl oleate hydrolysis.

For another data set, the system named is cholesterol esterase. Briefly: Baking stability: cholesterol esterase inhibition by water extract of a baked corn muffin containing the inhibitor. Particulars: baked fifteen minutes in a 400° oven. The protocol:
The sulfated polysaccharides described here retain their inhibitory activity for prolonged periods at elevated temperatures. […] For example, 109 mg of cellulose sulfate were added to 198 gm (7 oz) of corn muffin mix (Gold Medal®) and the solid ingredients were thoroughly mixed together. After the addition of one egg and one-third cup milk, the muffin mix was stirred fifteen times. The mixture was poured into nine muffin tins and baked for fifteen minutes in a 400° oven. The next day one muffin was broken up, added to 100 ml of water and allowed to stand for fifteen minutes. The mixture was centrifuged and the clear supernatant was assayed for the presence of cholesterol esterase inhibition. The IC50 of this solution was achieved when this solution was diluted 10^3 -10^4 times.

Broadly, the IC50 is the point on the concentration scale where inhibition reaches its midpoint. Low readings indicate inhibition by little substance, high ones a need for much substance. For the substance Chitin Sulfate, the values for the IC50 in data set [1] and in data set [2] were 60 pM and 140 pM, respectively.
In the case of Cellulose Sulfate, the concentration for half-maximal inhibition (IC50) in data set [1] came out at 20 pM; in data set [2] it was 60 pM. Besides, the “Stability of inhibitory activity under baking conditions / elevated temperatures” value with cholesterol esterase is listed as “stable under baking conditions”.
As for Alginic acid, the “Enhancement Factor” value in data set [1] (IC50 of alginic acid relative to IC50 of the sulfated derivative) was 1.0. For the same substance, in data set [1], the “IC50, inhibition of cholesterol esterase (cholesteryl oleate hydrolysis)” value is 4 µg/mL and the IC50 is 20000 pM. This substance also gave a concentration for half-maximal inhibition (IC50) in data set [2] of 42000 pM.
For the substance pectin [native, unsulfated pectin], the “Inhibition of cholesterol esterase (in words)” value in data set [1] is listed as “does not inhibit cholesterol esterase”.
Substance agar [native (unsulfated) agar] yielded an IC50 in data set [1] of 30000 pM.
For Chitosan Sulfate, the “IC50, inhibition of cholesterol esterase (cholesteryl oleate hydrolysis)” value in data set [1] is 0.015 µg/mL. The figures for the concentration for half-maximal inhibition (IC50) in data set [1] and in data set [2] were 30 pM and 160 pM, respectively.
